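Protocol summary: plate cells (96-well), add compound at 5 concentrations, incubate 48 h, interpolate endpoints linearly. GI50 is the concentration that inhibits growth by half.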 Calls of active or inactive are those of the source. Rule as the data show it: active = GI50 up to about 1.1 µM and inactive = higher.
Key:
Assay in all cases: DTP human tumour cell line panel, 48 h
[1] = system: SF-268
[2] = system: SR
[3] = system: TK-10
[4] = system: CCRF-CEM
[5] = system: KM12
[6] = system: SF-295
[7] = system: SNB-75
[8] = system: RPMI-8226
[9] = system: CAKI-1
[10] = system: SK-MEL-5
[11] = system: MCF7
[12] = system: Malme-3M
[13] = system: NCI/ADR-RES
[14] = system: HOP-62
[15] = system: OVCAR-3
[16] = system: MOLT-4
[17] = system: SK-OV-3
[18] = system: K562
[19] = system: RXF 393
[20] = system: BT-549
[21] = system: UO-31
[22] = system: HCT-116
[23] = system: Hs-578T
[24] = system: SF-539
[25] = system: SN12C
[26] = system: SK-MEL-2
[27] = system: UACC-257
[28] = system: NCI-H226
[29] = system: M14
[30] = system: NCI-H460
[31] = system: COLO 205
[32] = system: OVCAR-5
[33] = system: U-251
[34] = system: A549
[35] = system: SNB-19
[36] = system: EKVX
[37] = system: T47D
[38] = system: SW-620
[39] = system: NCI-H23
[40] = system: SK-MEL-28
[41] = system: PC-3
[42] = system: HCT-15
[43] = system: NCI-H522
[44] = system: A498
[45] = system: DU-145
[46] = system: IGROV-1
[47] = system: HL-60
[48] = system: HCC 2998
[49] = system: MDA-N
[50] = system: UACC-62
[51] = system: HT-29
[52] = system: ACHN
[53] = system: OVCAR-8
[54] = system: OVCAR-4
[55] = system: MDA-MB-435
[56] = system: LOX IMVI
[57] = system: MDA-MB-231
[58] = system: 786-0

## CCN1CCC(O)(c2ccc([N+](=O)[O-])cc2)C(C(=O)c2ccc([N+](=O)[O-])cc2)C1 (centres undefined)
[1]
  GI50: 21 µM (inactive)
[2]
  GI50: 33 µM (inactive)
[3]
  GI50: 17.8 µM (inactive)
[4]
  GI50: 11.9 µM (inactive)
[5]
  GI50: 17 µM (inactive)
[6]
  GI50: > 100 µM (inactive)
[7]
  GI50: 34.5 µM (inactive)
[8]
  GI50: 3.33 µM (inactive)
[9]
  GI50: 22.3 µM (inactive)
[10]
  GI50: 18.1 µM (inactive)
[11]
  GI50: 15.4 µM (inactive)
[12]
  GI50: 20.1 µM (inactive)
[13]
  GI50: 53.8 µM (inactive)
[14]
  GI50: 77.3 µM (inactive)
[15]
  GI50: 14.8 µM (inactive)
[16]
  GI50: 19.3 µM (inactive)
[17]
  GI50: > 100 µM (inactive)
[18]
  GI50: 36.8 µM (inactive)
[19]
  GI50: 14.4 µM (inactive)
[20]
  GI50: 16.9 µM (inactive)
[21]
  GI50: 17.3 µM (inactive)
[22]
  GI50: 17.2 µM (inactive)
[23]
  GI50: 23.2 µM (inactive)
[24]
  GI50: 14.3 µM (inactive)
[25]
  GI50: 21.1 µM (inactive)
[26]
  GI50: 43.2 µM (inactive)
[27]
  GI50: 17.9 µM (inactive)
[28]
  GI50: 26.3 µM (inactive)
[29]
  GI50: 18.1 µM (inactive)
[30]
  GI50: 28.8 µM (inactive)
[31]
  GI50: 13.8 µM (inactive)
[32]
  GI50: 52.6 µM (inactive)
[33]
  GI50: 29.2 µM (inactive)
[34]
  GI50: 69 µM (inactive)
[35]
  GI50: 95.1 µM (inactive)
[36]
  GI50: 18.9 µM (inactive)
[37]
  GI50: 23.3 µM (inactive)
[38]
  GI50: 25.1 µM (inactive)
[39]
  GI50: 19.5 µM (inactive)
[40]
  GI50: 16.6 µM (inactive)
[41]
  GI50: 26.6 µM (inactive)
[42]
  GI50: 21.3 µM
[43]
  GI50: 3.33 µM (inactive)
[44]
  GI50: 22 µM (inactive)
[45]
  GI50: 17.7 µM (inactive)
[46]
  GI50: 18.2 µM (inactive)
[47]
  GI50: 41.5 µM (inactive)
[48]
  GI50: 17.7 µM (inactive)
[49]
  GI50: 20.8 µM (inactive)
[50]
  GI50: 18.2 µM (inactive)
[51]
  GI50: 32.1 µM (inactive)
[52]
  GI50: 17.8 µM (inactive)
[53]
  GI50: 30.1 µM (inactive)
[54]
  GI50: 25.9 µM (inactive)
[55]
  GI50: 20.5 µM (inactive)
[56]
  GI50: 21.6 µM (inactive)
[57]
  GI50: 25.8 µM (inactive)
[58]
  GI50: 15.5 µM (inactive)

## O=C1Nc2cccc(C(F)(F)F)c2/C1=N/Nc1ccccc1[N+](=O)[O-]
[1]
  GI50: 40.9 µM (inactive)
[2]
  GI50: 0.912 µM (active)
[3]
  GI50: 14.8 µM (inactive)
[4]
  GI50: 40.6 µM (inactive)
[5]
  GI50: 5.97 µM (inactive)
[6]
  GI50: 16.4 µM (inactive)
[7]
  GI50: 25.6 µM (inactive)
[8]
  GI50: 11.4 µM (inactive)
[9]
  GI50: > 100 µM (inactive)
[10]
  GI50: 21.4 µM (inactive)
[11]
  GI50: 14.4 µM (inactive)
[13]
  GI50: 30.8 µM (inactive)
[14]
  GI50: 25.1 µM (inactive)
[15]
  GI50: 17.5 µM (inactive)
[16]
  GI50: 28.6 µM (inactive)
[17]
  GI50: 30.2 µM (inactive)
[18]
  GI50: 17 µM (inactive)
[19]
  GI50: > 100 µM (inactive)
[20]
  GI50: > 100 µM (inactive)
[21]
  GI50: 33.9 µM (inactive)
[22]
  GI50: 37.6 µM (inactive)
[23]
  GI50: 27.3 µM (inactive)
[25]
  GI50: 23.4 µM (inactive)
[26]
  GI50: > 100 µM (inactive)
[27]
  GI50: 10.3 µM (inactive)
[28]
  GI50: 23.1 µM (inactive)
[29]
  GI50: > 100 µM (inactive)
[30]
  GI50: 17.8 µM (inactive)
[31]
  GI50: 29.4 µM (inactive)
[32]
  GI50: 86.5 µM (inactive)
[33]
  GI50: 21 µM (inactive)
[34]
  GI50: 48 µM (inactive)
[35]
  GI50: 51.5 µM (inactive)
[36]
  GI50: 11.6 µM (inactive)
[37]
  GI50: 56.6 µM (inactive)
[38]
  GI50: 33 µM (inactive)
[39]
  GI50: 22.1 µM (inactive)
[40]
  GI50: 63.5 µM (inactive)
[41]
  GI50: 37.6 µM (inactive)
[42]
  GI50: 34.4 µM
[43]
  GI50: 22.4 µM (inactive)
[44]
  GI50: 0.836 µM (active)
[45]
  GI50: 33 µM (inactive)
[46]
  GI50: 0.404 µM (active)
[47]
  GI50: 32.9 µM (inactive)
[48]
  GI50: 28.7 µM (inactive)
[49]
  GI50: 17.7 µM (inactive)
[50]
  GI50: 51.3 µM (inactive)
[51]
  GI50: 36.4 µM (inactive)
[52]
  GI50: 16.1 µM (inactive)
[53]
  GI50: 26.1 µM (inactive)
[54]
  GI50: 16.9 µM (inactive)
[55]
  GI50: 18.7 µM (inactive)
[56]
  GI50: 17.1 µM (inactive)
[57]
  GI50: 28.4 µM (inactive)
[58]
  GI50: 15.5 µM (inactive)
